Assay results as given in the supplement of paper PMC10307832.

Experiments:
Assay in all cases: relative viability (nuclei count vs DMSO), 5 days (fraction); higher = more cells survive
[1] = compound: Cn1cc(-c2cnn3c(N)c(Br)c([C@@H]4CCCNC4)nc23)cn1 + Cc1nc(Nc2ncc(C(=O)Nc3c(C)cccc3Cl)s2)cc(N2CCN(CCO)CC2)n1 [Dasatinib] (partner 0.075 µM)
Method in brief: (§1)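 One day after seeding in 1536-well plates, lung cancer cell lines were dosed by pin tool. Dosing was either single-drug or a fixed anchor-drug dose plus five library-drug doses (not always all listed) in √10 steps. After 5 days, nuclei were stained in one fix-and-stain step and counted on 4× images, and relative viability is the nuclei count of treated wells over that of vehicle wells, given as the median of duplicate plates.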

[2] = compound: Cn1cc(-c2cnn3c(N)c(Br)c([C@@H]4CCCNC4)nc23)cn1 + CC1(C)CCC(c2ccc(Cl)cc2)=C(CN2CCN(c3ccc(C(=O)NS(=O)(=O)c4ccc(N[C@H](CCN5CCOCC5)CSc5ccccc5)c(S(=O)(=O)C(F)(F)F)c4)cc3)CC2)C1 [Navitoclax] (partner 0.5 µM)
Method in brief: as §1

[3] = compound: Cn1cc(-c2cnn3c(N)c(Br)c([C@@H]4CCCNC4)nc23)cn1 + CC(C)C[C@H](NC(=O)[C@H](Cc1ccccc1)NC(=O)c1cnccn1)B(O)O [Bortezomib] (partner 0.002 µM)
Method in brief: as §1

[4] = compound: Cn1cc(-c2cnn3c(N)c(Br)c([C@@H]4CCCNC4)nc23)cn1 + CCNC(=O)c1noc(-c2cc(C(C)C)c(O)cc2O)c1-c1ccc(CN2CCOCC2)cc1 [Luminespib] (partner 0.01 µM)
Method in brief: as §1

Cell Line	relative viability ([1]; first compound 0.05 µM)	relative viability ([1]; first compound 0.1581 µM)	relative viability ([1]; first compound 0.5 µM)	relative viability ([1]; first compound 1.581 µM)	relative viability ([1]; first compound 5 µM)	relative viability ([2]; first compound 0.05 µM)	relative viability ([2]; first compound 0.1581 µM)	relative viability ([2]; first compound 0.5 µM)	relative viability ([2]; first compound 1.581 µM)	relative viability ([2]; first compound 5 µM)	relative viability ([3]; first compound 0.05 µM)	relative viability ([3]; first compound 0.1581 µM)	relative viability ([3]; first compound 0.5 µM)	relative viability ([3]; first compound 1.581 µM)	relative viability ([3]; first compound 5 µM)	relative viability ([4]; first compound 0.05 µM)	relative viability ([4]; first compound 0.1581 µM)	relative viability ([4]; first compound 0.5 µM)	relative viability ([4]; first compound 1.581 µM)	relative viability ([4]; first compound 5 µM)
201T	0.614	0.568	0.651	0.587	0.439	1.14	1.18	1.16	1.32	1.22	1.04	1.09	1.1	1.07	1.17	1.05	1.17	1.06	0.988	0.83
A-427	0.863	0.816	0.633	0.583	0.358	1.06	1	0.9	0.953	0.733	1	0.937	1.2	0.961	0.743	1.36	0.923	0.889	0.571	0.403
ABC-1	0.479	0.561	0.497	0.484	0.301	–	–	–	–	–	0.364	0.284	0.298	0.331	0.287	0.439	0.338	0.484	0.361	0.265
BEN	0.316	0.286	0.347	0.327	0.265	0.0592	0.289	0.0589	0.0666	0.0768	0.688	0.824	0.729	0.774	0.553	0.305	0.463	0.311	0.332	0.337
CAL-12T	0.467	0.427	0.26	0.299	0.174	1.36	1.24	1.12	0.755	0.159	0.728	0.899	0.775	0.718	0.315	0.517	0.173	0.252	0.289	0.204
COR-L23	0.495	0.451	0.441	0.343	0.2	0.854	1.13	0.973	0.965	0.346	1.08	1.23	0.913	0.646	0.46	0.775	0.745	0.366	0.24	0.119
COR-L 105	0.318	0.336	0.341	0.29	0.309	0.742	0.693	0.649	0.713	0.454	0.757	0.721	0.768	0.613	0.611	0.712	0.754	0.696	0.581	0.484
Calu-6	–	–	–	–	–	0.997	0.597	0.68	0.211	0.146	1.17	0.733	0.685	0.363	0.188	–	–	–	–	–
ChaGo-K-1	0.565	0.564	0.606	0.478	0.353	0.966	0.967	0.981	0.737	0.607	0.909	1.01	0.826	0.717	0.682	0.574	0.537	0.612	0.509	0.452
EBC-1	–	–	–	–	–	0.39	0.347	0.286	0.304	0.238	0.609	0.599	0.445	0.461	0.394	–	–	–	–	–
EKVX	0.376	0.549	0.54	0.496	0.578	0.828	1.13	0.911	0.918	0.782	1.06	1.16	0.987	0.836	1.07	0.939	0.958	0.797	0.845	0.667
EMC-BAC-2	0.315	0.328	0.333	0.342	0.25	1.26	1.25	1.14	1.01	1.43	1.04	1.14	1.13	1.02	1.15	1.25	1.37	1.12	0.879	1.08
EPLC-272H	0.34	0.339	0.333	0.286	0.162	1.2	1.1	1.2	0.966	0.969	0.853	0.891	0.933	0.769	0.82	0.63	0.464	0.314	0.194	0.205
H3255	0.313	0.379	0.39	0.446	0.267	0.561	0.507	0.379	0.531	0.29	0.676	0.787	0.854	0.792	0.441	0.882	0.914	1.07	0.938	0.473
HARA	0.37	0.316	0.332	0.252	0.157	1.11	1.21	1.25	1.05	0.725	1.19	1.16	1.18	0.764	0.224	0.752	0.706	0.631	0.376	0.16
HCC-15	0.706	0.633	0.511	0.464	0.483	0.803	0.792	0.635	0.626	0.669	1.16	1.18	1.03	0.788	1.11	0.636	0.419	0.396	0.198	0.382
HCC-44	–	–	–	–	–	0.94	1.05	1.23	0.916	1.18	0.91	1.11	0.923	0.882	0.796	–	0.995	1.29	0.557	0.771
HCC-78	–	0.384	0.388	0.398	0.295	0.851	0.794	0.796	0.737	0.56	0.482	0.567	0.556	0.511	0.39	–	–	–	–	–
HCC-366	0.644	0.562	0.628	0.467	0.22	1.11	1.07	1.09	0.918	0.771	1.03	1.2	1.06	0.734	0.334	–	–	–	–	–
HCC-827	0.32	0.392	0.276	0.295	0.193	1.03	1.04	1.04	1.01	0.99	0.919	1.03	1.18	1.1	1.01	0.551	0.843	0.485	0.674	0.332

Cell Line	relative viability ([1]; first compound 0.05 µM)	relative viability ([1]; first compound 0.1581 µM)	relative viability ([1]; first compound 0.5 µM)	relative viability ([1]; first compound 1.581 µM)	relative viability ([1]; first compound 5 µM)	relative viability ([2]; first compound 0.05 µM)	relative viability ([2]; first compound 0.1581 µM)	relative viability ([2]; first compound 0.5 µM)	relative viability ([2]; first compound 1.581 µM)	relative viability ([2]; first compound 5 µM)	relative viability ([3]; first compound 0.05 µM)	relative viability ([3]; first compound 0.1581 µM)	relative viability ([3]; first compound 0.5 µM)	relative viability ([3]; first compound 1.581 µM)	relative viability ([3]; first compound 5 µM)	relative viability ([4]; first compound 0.05 µM)	relative viability ([4]; first compound 0.1581 µM)	relative viability ([4]; first compound 0.5 µM)	relative viability ([4]; first compound 1.581 µM)	relative viability ([4]; first compound 5 µM)
HOP-62	0.66	0.702	0.568	0.589	0.316	0.985	1.18	1.16	0.97	0.479	0.847	1.02	1.28	0.708	0.294	0.872	0.915	0.933	0.829	0.739
IA-LM	–	–	–	–	–	0.858	0.974	0.609	0.412	0.252	0.823	0.886	0.678	0.532	0.32	–	–	–	–	–
LC-2-ad	0.486	0.544	0.504	0.327	0.458	0.394	0.606	0.395	0.423	0.429	1.03	1.15	0.938	1.06	0.935	1.01	1.11	1.26	1.03	1.08
LCLC-97TM1	0.838	0.96	0.833	0.82	0.853	0.462	0.439	0.325	0.343	0.46	0.318	0.546	0.626	0.333	0.204	0.874	0.844	0.743	0.654	0.777
LCLC-103H	0.511	0.449	0.412	0.425	0.289	–	–	–	–	–	1.03	1.2	1.18	0.841	1.16	1.05	1.02	0.895	0.699	0.816
LK-2	0.228	0.296	0.26	–	0.228	0.915	0.711	0.699	0.627	0.555	–	–	–	–	–	0.213	0.206	0.182	–	0.169
LOU-NH91	0.561	0.506	0.514	0.519	0.48	0.732	0.666	0.644	0.67	0.474	0.504	0.492	0.513	0.442	0.481	0.321	0.368	0.285	0.667	0.307
NCI-H358	0.131	0.155	0.156	0.167	0.148	–	–	–	–	–	–	–	–	–	–	0.546	0.281	0.437	0.261	0.152
NCI-H650	0.439	0.409	0.451	0.474	0.422	–	–	–	–	–	0.717	0.748	0.69	0.773	0.603	0.807	0.872	0.749	0.811	0.345
NCI-H661	0.898	0.962	0.891	0.82	0.432	–	–	–	–	–	0.805	0.781	0.698	0.731	0.587	0.953	0.953	0.991	0.829	0.729
NCI-H1299	–	–	–	–	–	1.03	1.06	1.08	1.02	0.936	0.942	1.04	0.994	1.03	0.985	–	–	–	–	–
NCI-H1395	0.397	0.463	0.399	0.368	0.351	1.18	0.698	0.953	0.68	0.423	–	–	–	–	–	0.762	0.536	0.687	0.349	0.379
NCI-H1563	0.418	0.451	0.503	0.436	0.412	–	–	–	–	–	0.887	0.74	0.742	0.805	0.706	0.62	0.578	0.51	0.55	0.37
NCI-H1703	–	–	–	–	–	1.08	0.441	0.309	0.147	0.122	0.231	0.261	0.19	0.132	0.138	–	–	–	–	–
NCI-H1793	0.449	0.416	0.306	0.385	0.184	0.43	0.517	0.386	0.383	0.292	–	–	–	–	–	0.211	0.815	0.233	0.172	0.152
NCI-H1944	0.23	0.206	0.197	0.192	0.179	0.92	1.01	1.05	1.01	0.858	–	–	–	–	–	0.705	0.671	0.706	0.635	0.344
NCI-H2170	0.713	0.541	0.524	0.551	0.446	0.584	0.554	0.453	0.527	0.713	–	–	–	–	–	0.837	0.561	0.799	0.931	0.422
NCI-H2342	0.31	0.3	0.345	0.336	0.28	–	–	–	–	–	–	–	–	–	–	0.764	0.88	0.773	0.708	0.615
SK-MES-1	0.359	0.308	0.236	0.231	0.118	1.29	1.25	1.11	1.02	0.352	–	–	–	–	–	0.651	0.406	0.419	0.24	0.187
